In patent publication US20130116148A1, “LIVER DISEASE MARKER, METHOD AND APPARATUS FOR MEASURING THE SAME, AND METHOD FOR ASSAYING PHARMACEUTICAL PREPARATION” (KEIO UNIVERSITY, priority 2010, published 2013):

Key:
[1] = system: glutathione-biosynthesis pathway; test: Administration of BSO and DEM to mice; γ-Glu-X and γ-Glu-X-Gly peptides in the murine serum; type: in vivo; conditions: mouse serum, compared to the normal state
Description: Male mice were fasted overnight and anesthetized by an intraperitoneal injection of pentobarbital sodium (60 mg/Kg of body weight). Then, the mice were intraperitoneally injected with BSO, which is aγ-glutamyl cysteine synthase (GCS) inhibitor, and diethylmaleate (DEM), which is an electrophile (GCS activator), both at a dose of 4 mmol/kg of body weight (888 mg of BSO, 688 mg of DEM). The mouse as a healthy subject was intraperitoneally injected with physiological saline. Liver specimens (about 300 mg) were excised from the mice 1 hour after administration (5 times each). On the other hand, regarding the substances in the murine serum, γ-Glu-X peptides and γ-Glu-X-Gly peptides that were decreased by administration of BSO and were increased by administration of an electronic substance, DEM, compared to the normal state were only γ-[…]AB and ophthalmic acid (γ-[…]AB-Gly) (FIG. 22). Therefore, it is expected that, in the case of a mouse, only γ-[…]AB and ophthalmic acid are increased in the blood when glutathione is decreased because of the oxidative stress caused by electrophiles or the like.

[2] = system: glutathione-biosynthesis pathway; test: Administration of GCS inhibitor BSO and GCS activator DEM to mice; metabolites in the livers by CE-TOFMS; type: in vivo; conditions: mouse liver
Description: Male mice were fasted overnight and anesthetized by an intraperitoneal injection of pentobarbital sodium (60 mg/Kg of body weight). Then, the mice were intraperitoneally injected with BSO, which is aγ-glutamyl cysteine synthase (GCS) inhibitor, and diethylmaleate (DEM), which is an electrophile (GCS activator), both at a dose of 4 mmol/kg of body weight (888 mg of BSO, 688 mg of DEM). The mouse as a healthy subject was intraperitoneally injected with physiological saline. Liver specimens (about 300 mg) were excised from the mice 1 hour after administration (5 times each).
The liver specimens (about 300 mg) excised from the mice were immediately placed in 1 ml of methanol containing an internal standard substance and were homogenized to inactivate an enzyme, thereby stopping enhancement of metabolism. After 500 μl of pure water was added to the mixture, 300 μl of solution was taken out. To this solution, 200 μl of chloroform was added. After thorough stirring, the solution was further centrifuged at 15000 rpm for 15 minutes at 4° C. After allowing to stand, 300 μl of separated water-methanol phase was passed through a 5 kDa molecular weight cutoff filter for centrifugal ultrafiltration to deproteinize it. […]
The method described below was used to confirm that the detected γ-Glu-X peptides and γ-Glu-X-Gly peptides were synthesized in a glutathione-biosynthesis pathway.

[3] = system: glutathione; conditions: mouse, large quantities of APAP, cited from earlier work

Row | Compound | γ-Glu-2AB and ophthalmic acid (γ-Glu-2AB-Gly) in the murine serum [1] | amount of glutathione in the livers ([2]; 1 hour after i.p. 4 mmol/kg, compared to the healthy mouse) | γ-Glu-X and γ-Glu-X-Gly peptidic substances in the liver other than γ-Glu-Cys, GSH and γ-Glu-Ser-Gly ([2]; compared to the normal) | ophthalmic acid ([3]; in inverse proportion to the glutathione level) | glutathione [3]
1 | CCCCS(=N)(=O)CCC(N)C(=O)O (centres unmarked) [BSO, buthionine sulfoximine] | decreased | decreased rapidly | decreased | – | –
2 | CC(=O)Nc1ccc(O)cc1 [APAP, Acetaminophen] | – | – | – | increased rapidly | decreased
